Reference: PubChem BioAssay AID248 (DTP/NCI, 2004)
Where “and” joins values, the source holds several entries; their conditions need not be identical. Equal entries are not always repeated. Toxic doses and inconclusive results are not listed. Cut-off read from the data, not from the text of the source: active = T/C of 150% or more; inactive = T/C below 125%.

System: L1210 leukemia ip in BDF1 mice, survival T/C
Test: NCI In Vivo Anticancer Drug Screen. Data for tumor model L1210 Leukemia (intraperitoneal) in B6D2F1 (BDF1) mice
Details: endpoint: mean survival time, higher = longer survival
Summary of the method: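 Mice bearing the transplanted tumor received compound or vehicle. Survival of the treated group was divided by that of the vehicle-treated control group to give the ratio.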

[1] = dose: 100.0 mg/kg/injection, schedule: Q04DX002 (ip), vehicle: saline with Tween-80
[2] = dose: 200.0 mg/kg/injection, schedule: Q04DX002 (ip), vehicle: saline with Tween-80
[3] = dose: 100.0 mg/kg/injection, schedule: Q04DX003 (ip), vehicle: Klucel (hydroxypropylcellulose) (HPC)
[4] = dose: 200.0 mg/kg/injection, schedule: Q04DX003 (ip), vehicle: Klucel (hydroxypropylcellulose) (HPC)

Measured: T/C

CCOC(=O)/C=C/C(=O)O.[Fe]
inactive: dose: 100.0 mg/kg/injection, schedule: Q04DX003 (ip), vehicle: saline 101 % of control | dose: 200.0 mg/kg/injection, schedule: Q04DX003 (ip), vehicle: saline 95 % of control | dose: 400.0 mg/kg/injection, schedule: Q04DX003 (ip), vehicle: saline 101 % of control

C/C(=C\COc1ccc(C)cc1)CC/C=C(\C)CCC1OC1(C)C (centres undefined)
inactive: dose: 50.0 mg/kg/injection, schedule: Q04DX002 (ip), vehicle: saline with Tween-80 108 % of control | [1] 108 % of control | [2] 92 % of control

c1ccc(CCc2nccc3ccccc23)cc1
inactive: dose: 75.0 mg/kg/injection, schedule: Q01DX001 (ip), vehicle: saline 96 % of control | dose: 150.0 mg/kg/injection, schedule: Q01DX001 (ip), vehicle: saline 97 % of control

CN(C)C(=O)C(=O)C1C=Cc2ccccc21 (centres undefined)
inactive: dose: 100.0 mg/kg/injection, schedule: Q04DX003 (ip), vehicle: saline with Tween-80 93 % of control | dose: 200.0 mg/kg/injection, schedule: Q04DX003 (ip), vehicle: saline with Tween-80 88 % of control | dose: 400.0 mg/kg/injection, schedule: Q04DX003 (ip), vehicle: saline with Tween-80 102 % of control

Cc1cc(Nc2ccc(C)c(Cl)c2)nc(N)n1
inactive: dose: 100.0 mg/kg/injection, schedule: Q01DX Z (ip), vehicle: methylcellulose (MC) 89 % of control

O=C(O)Cn1c(=O)ccc2ccccc21
inactive: [1] 91 % of control | [2] 95 % of control | dose: 400.0 mg/kg/injection, schedule: Q04DX002 (ip), vehicle: saline with Tween-80 95 % of control

O=C(Sc1ccccc1)C1OC1(c1ccccc1)c1ccccc1 (centres undefined)
inactive: [3] 97 % of control | [4] 88 % of control

CC[N+](C)(CC)CCNC(c1ccccc1)C(Cl)(Cl)Cl (centres undefined)
inactive: dose: 5.0 mg/kg/injection, schedule: Q01DX001 (ip), vehicle: saline 92 % of control | dose: 10.0 mg/kg/injection, schedule: Q01DX001 (ip), vehicle: saline 95 % of control | dose: 20.0 mg/kg/injection, schedule: Q01DX001 (ip), vehicle: saline 103 % of control | dose: 40.0 mg/kg/injection, schedule: Q01DX001 (ip), vehicle: saline 95 % of control | dose: 80.0 mg/kg/injection, schedule: Q01DX001 (ip), vehicle: saline 106 % of control | dose: 100.0 mg/kg/injection, schedule: Q01DX001 (ip), vehicle: saline 102 % of control

CC1(C)N=C(N)N=C(N)N1c1cc(Cl)c(Cl)cc1Cl
inactive: dose: 6.0 mg/kg/injection, schedule: Q01DX009 (ip), vehicle: Klucel (hydroxypropylcellulose) (HPC) 105 % of control | dose: 12.0 mg/kg/injection, schedule: Q01DX009 (ip), vehicle: Klucel (hydroxypropylcellulose) (HPC) 103 % of control | dose: 12.0 mg/kg/injection, schedule: Q04DX003 (ip), vehicle: Klucel (hydroxypropylcellulose) (HPC) 95 % of control | dose: 25.0 mg/kg/injection, schedule: Q01DX009 (ip), vehicle: Klucel (hydroxypropylcellulose) (HPC) 96 % of control and 102 % of control | dose: 25.0 mg/kg/injection, schedule: Q04DX003 (ip), vehicle: Klucel (hydroxypropylcellulose) (HPC) 101 % of control | dose: 50.0 mg/kg/injection, schedule: Q01DX009 (ip), vehicle: Klucel (hydroxypropylcellulose) (HPC) 108 % of control | dose: 50.0 mg/kg/injection, schedule: Q04DX003 (ip), vehicle: Klucel (hydroxypropylcellulose) (HPC) 102 % of control

CC(=O)NCCCOc1ccc([N+](=O)[O-])cc1Cl
inactive: dose: 100.0 mg/kg/injection, schedule: Q01DX001 (ip), vehicle: Klucel (hydroxypropylcellulose) (HPC) 100 % of control | dose: 100.0 mg/kg/injection, schedule: Q01DX009 (ip), vehicle: Klucel (hydroxypropylcellulose) (HPC) 102 % of control | [3] 101 % of control | dose: 200.0 mg/kg/injection, schedule: Q01DX001 (ip), vehicle: Klucel (hydroxypropylcellulose) (HPC) 101 % of control | dose: 200.0 mg/kg/injection, schedule: Q01DX009 (ip), vehicle: Klucel (hydroxypropylcellulose) (HPC) 110 % of control and 112 % of control | [4] 113 % of control | dose: 400.0 mg/kg/injection, schedule: Q04DX003 (ip), vehicle: Klucel (hydroxypropylcellulose) (HPC) 103 % of control

O=C(Nc1cc(S(=O)(=O)O)cc2cc(S(=O)(=O)O)c(N=Nc3ccc([As](=O)(O)O)cc3)c(O)c12)c1ccc([N+](=O)[O-])cc1
inactive: dose: 200.0 mg/kg/injection, schedule: Q04DX003 (ip), vehicle: saline sonified 92 % of control

O=C(C[n+]1ccccc1)c1ccccc1
inactive: dose: 25.0 mg/kg/injection, schedule: Q04DX002 (ip), vehicle: saline 98 % of control | dose: 50.0 mg/kg/injection, schedule: Q04DX002 (ip), vehicle: saline 95 % of control | dose: 100.0 mg/kg/injection, schedule: Q04DX002 (ip), vehicle: saline 98 % of control

c1c[nH]c(N=Nc2ccc(-c3ccc(N=Nc4ncc[nH]4)cc3)cc2)n1
inactive: dose: 50.0 mg/kg/injection, schedule: Q01DX009 (ip), vehicle: saline with Tween-80 97 % of control | dose: 100.0 mg/kg/injection, schedule: Q01DX009 (ip), vehicle: saline with Tween-80 90 % of control | dose: 200.0 mg/kg/injection, schedule: Q01DX009 (ip), vehicle: saline with Tween-80 90 % of control
